Laboratory results from US20230119479A1, “A HISTONE DEACETYLASE INHIBITOR HAVING A NITROGEN-CONTAINING AROMATIC HETEROCYCLYL GROUP” (SHIONOGI & CO., LTD., priority 2019, published 2023).

Assays:
[1] = test system: HDACs other than HDAC2 (HDAC2 knockout K562 cells); assay: Evaluation of HDAC2 selectivity: H3K9 histone acetylation in HDAC2 knockout K562 cells (AlphaLISA); type: cell-based; settings: Homo sapiens, maximum concentration 83.3 μM, 100% = SAHA-treated group, read-out: maximum inhibition rate (H3K9 histone acetylation);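 note: 0% inhibition equals DMSO-treated group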
Method: Test Example 3: Evaluation of HDAC2 Selectivity
K562 cells were cultured in RPMI1640 medium (SIGMA, R8758) containing 10% FBS (Hyclone, SH30070.03) and 1% penicillin streptomycin (Nacalai Tesque, 26252-94). CompoZr (registered trademark) Zinc Finger Nuclease (Merck) targeting HDAC2 sequences was transfected into K562 cells by electroporation using Nucleofector (Lonza). The cells after transfection were subjected to limiting dilution, and DNA sequencing was performed on the cell clones in which mutations were detected by the PCR method. Cell clones lacking a base number that was not a multiple of 3 in both alleles were identified, and a single-cell cloning was performed on the cell clones to produce HDAC2 knockout K562 cells. It was confirmed that the expression of HDAC2 was not detected by Western blotting in the prepared cells.
By evaluating the H3K9 histone acetylation-enhancing activity of the test compound using HDAC2 knockout K562 cells, the inhibitory activity against HDACs other than HDAC2 was evaluated.
HDAC2 knockout K562 cells stored in liquid nitrogen were thawed and cultured in RPMI1640 medium (Nacalai Tesque, 30264-85) for 2 to 4 days. Using Echo555 (Beckman Coulter), the test compound was dispensed to the assay plate (Corning, 4513) at 37.5 nL/well, and then HDAC2 knockout K562 cells were seeded to 125 cells/4.5 μL/well, and stirred. At this time, the test compound was treated at 8 points (n=2) in the 3-fold dilution series from the maximum concentration of 83.3 μM. After culturing at 37° C. and 5% CO2 overnight, 1.5 μL/well of Lysis buffer (PerkinElmer, AL009F1) was added, and after incubating at room temperature for 15 minutes, 3 μL/well of Extraction buffer (PerkinElmer, AL009F2) was added and the mixture was incubated for 10 minutes at room temperature. Then, 5× antibody solution (prepared by diluting anti-H3K9 Acceptor beads (PerkinElmer, AL114M) 75-fold with a detection buffer prepared by diluting 10×Cell-Histone Detection buffer (PerkinElmer, AL009F3) 10-fold with ultrapure water, and diluting Biotinylated anti H3 antibody (PerkinElmer, AL118M) diluted 150 times with the detection buffer) was added at 3 μL/well, and after incubating at room temperature for 60 minutes, then 5× donor beads solution (prepared by diluting Streptavidin Donor beads (PerkinElmer, 6760002) 75 fold with the detection buffer) was added at 3 μL/well, and the mixture was incubated again at room temperature for 60 minutes, and then the emission value was measured using PHERAstar (BMG LABTECH) (excitation=680 nm, […]). […] For cell toxicity, cell viability rate was evaluated by the PrestoBlue method.

[2] = Metabolism stability test; type: in vitro ADME; settings: human liver microsomes 0.5 mg protein/mL, 30 minutes, 37° C., NADPH
Method: Using commercially available pooled human hepatic microsomes, a compound of the present invention is reacted for a constant time, and a remaining rate is calculated by comparing a reacted sample and an unreacted sample, thereby, a degree of metabolism in liver is assessed.
A reaction is performed (oxidative reaction) at 37° C. for 0 minute or 30 minutes in the presence of 1 mmol/L NADPH in 0.2 mL of a buffer (50 mmol/L Tris-HCl pH 7.4, 150 mmol/L potassium chloride, 10 mmol/L magnesium chloride) containing 0.5 mg protein/mL of human liver microsomes. After the reaction, 50 μL of the reaction solution is added to 100 μL of a methanol/acetonitrile=1/1 (v/v), mixed and centrifuged at 3000 rpm for 15 minutes. The compound of the present invention in the supernatant is quantified by LC/MS/MS or Solid Phase Extraction (SPE)/MS, and a remaining amount of the compound of the present invention after the reaction is calculated, letting a compound amount at 0 minute reaction time be 100%. The hydrolysis reaction is carried out in the absence of NADPH, and the glucuronidation reaction is carried out in the presence of 5 mmol/L UDP-glucuronic acid instead of NADPH, and the same operation is carried out thereafter. The dilution concentration and dilution solvent are changed as necessary.

[3] = target: T1, HDAC2 Human recombinant C-terminal FLAG-tag (Homo sapiens, UniProt Q92769); assay: Measurement of HDAC2 enzyme inhibitory activity (HTRF); type: biochemical; settings: recombinant HDAC2, H3K9ac peptide, 3 hours room temperature; read-out: HDAC2 IC50
T1 construct: FLAG (C); purchased BPS Bioscience 50052
Summary of the method: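 Compounds were tested at 8 points in 3-fold dilutions from 99 μM final (n=2) against FLAG-tagged HDAC2 with biotinylated H3K9ac (1-21) peptide (0.6 μM as added). The reaction ran 3 h at room temperature in Tris pH 8.0 buffer, then was stopped with SAHA. Deacetylated product was detected by HTRF (Eu-anti-H3K9me0 antibody, streptavidin-XL665) as the 665/615-620 nm ratio.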

[4] = Platelet toxicity test using human blood progenitor cells (WST); type: cell-based; settings: human bone marrow CD34+ progenitor cells, maximum concentration 25 μM
Method: Test Example 2: Platelet Toxicity Test Using Human Blood Progenitor Cells
Human bone marrow CD34+ progenitor cells (Lonza, 2M-101B) stored at −80° C. were thawed, spun down at 150 g for 10 minutes at 20° C., and a medium (StemSpan Expansion Supplement, STEM CELL TECHNOLOGIES, ST-02696) to which cytokines (StemSpan SFEM II, STEM CELL TECHNOLOGIES, ST-09655) was added was added to adjust to 2×10^4/well, the mixture was seeded in 12well non-coat dish (Corning, 3513), was incubated for 10 days at 37° C., 5% CO2. After 10 days, the cells were collected and spun down at 150 g for 10 minutes at 20° C., and a medium (StemSpan Expansion Supplement) containing cytokines (StemSpan SFEM II) was added so that the number of cells became 2×10^5 cells/ml. 50 μl of the cell suspension was seeded to each well of a 96-well plate (Corning, 3596) and allowed to stand overnight in an incubator at 37° C., 5% CO2. The next day, 50 μl of the test compound was treated to each well and allowed to stand for 48 hours in the incubator at 37° C., 5% CO2 (n=2). At this time, the test compound dissolved in 100% DMSO was serially diluted with DMSO at a 3-fold ratio, and then a medium containing cytokine was added to adjust the final concentration to 25, 8.33, 2.78, 0.93, 0.31, 0.1 μM. After that, 10 μl of WST (Cell count reagent SF, Nacalai Tesque Inc., 07553-44) was added to each well, and the mixture was allowed to stand in the incubator for 4 hours at 37° C., 5% CO2, and then the multi-label reader 2030 ARVO X4 (PerkinElmer) was used to measure the absorbance. At this time, the absorbance at 450 nm and the absorbance at 620 nm were obtained, and the difference between 450 nm and 620 nm was used as the measured value. The measured values were analyzed by Excel and TIBCO Spotfire, and IC50 values were calculated. At this time, for control (−), the well without cells was set as n=6 for one row, and the average value was calculated, and for control (+), the well in which DMSO was added to the cells so as to have the same concentration as the compound treatment group was set as n=6 for one row, and the average value was calculated and corrected for each plate. For the test compound, the average value of n=2 was used.

T1 sequence (Q92769 whole entry): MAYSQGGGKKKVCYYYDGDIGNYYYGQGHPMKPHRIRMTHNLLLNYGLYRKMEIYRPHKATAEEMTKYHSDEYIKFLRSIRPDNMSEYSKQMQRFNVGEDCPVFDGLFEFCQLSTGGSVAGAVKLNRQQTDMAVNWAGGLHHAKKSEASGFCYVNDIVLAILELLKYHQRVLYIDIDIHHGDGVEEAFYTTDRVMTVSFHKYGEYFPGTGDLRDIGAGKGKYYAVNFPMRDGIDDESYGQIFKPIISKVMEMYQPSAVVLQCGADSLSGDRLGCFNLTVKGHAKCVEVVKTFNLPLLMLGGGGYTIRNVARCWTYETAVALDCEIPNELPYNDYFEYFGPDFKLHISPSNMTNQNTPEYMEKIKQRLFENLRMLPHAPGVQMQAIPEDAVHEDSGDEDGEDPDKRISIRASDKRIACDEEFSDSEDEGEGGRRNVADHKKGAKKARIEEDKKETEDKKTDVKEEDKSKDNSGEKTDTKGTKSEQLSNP

Structure (SMILES)	remaining rate after reaction [2]	IC50 [3]	inhibition at up to 83.3 µM [1]	IC50 at 48 h [4]
Nc1ccc(-n2cccc2)nc1NC(=O)c1cnc(N2CCOCC2)cn1 [Compound I-030]	101%	190 nM	9%	
Nc1ccc(-c2ccc(F)nc2)nc1NC(=O)c1cnc(C2CC2)cn1 [Compound I-157]			7%	> 25000 nM
Nc1ccc(-c2ccc(F)nc2)cc1NC(=O)c1cnc(OCF)cn1 [Compound I-121]		240 nM		> 25000 nM
Nc1ccc(-c2ccccc2)nc1NC(=O)c1cnc(C2CC2)cn1 [Compound I-158]			7%	> 25000 nM
Nc1ccc(-n2cccc2)nc1NC(=O)c1ccc(C2CC2)cn1 [Compound I-160]			6%	> 25000 nM
CCOCCOc1cnc(C(=O)Nc2cc(-c3ccc(F)nc3)ccc2N)cn1 [Compound I-126]		140 nM	5%	> 25000 nM
Cn1cc(-c2ccc(C(=O)Nc3nc(-c4cccs4)ccc3N)nn2)cn1 [Compound I-028]		230 nM	8%	> 25000 nM
CC(=O)Nc1ccc(C(=O)Nc2cc(-c3ccc(F)nc3)ccc2N)nc1 [Compound I-280]		50 nM	8%	
COc1ccc(C(=O)Nc2cc(-c3ccc(F)nc3)ccc2N)nc1 [Compound I-124]		160 nM	9%	> 25000 nM
Nc1ccc(-c2ccc(F)nc2)cc1NC(=O)c1ccc(OCF)cn1 [Compound I-142]		180 nM	8%	> 25000 nM
Cn1cc(-c2ccc(N)c(NC(=O)c3cnc(OCC(F)F)cn3)c2)cn1 [Compound I-152]	97.9%	250 nM		
Nc1ccc(-c2ccc(F)nc2)cc1NC(=O)c1ccc(N2CCOCC2)cn1 [Compound I-093]		130 nM		> 25000 nM
Nc1ccc(-c2ccc(F)nc2)cc1NC(=O)c1ccc2ocnc2n1 [Compound I-148]	94.9%	150 nM		
CCc1cnc(C(=O)Nc2cc(-c3cnn(C)c3)ccc2N)cn1 [Compound I-250]		170 nM	5%	
Cn1cc(-c2ccc(N)c(NC(=O)c3cc4ccccc4cn3)c2)cn1 [Compound I-141]		230 nM	6%	> 25000 nM
CN(C)c1cnc(C(=O)Nc2cc(-c3cnn(C)c3)ccc2N)cn1 [Compound I-179]	93.5%	81 nM	9%	
COc1ccc(C(=O)Nc2cc(-c3cnn(C)c3)ccc2N)nn1 [Compound I-254]		340 nM	3%	
Cn1cc(-c2ccc(N)c(NC(=O)c3cnc(-c4cnn(C)c4)cn3)c2)cn1 [Compound I-036]		160 nM	8%	> 25000 nM
Cn1cc(-c2cc(C(=O)Nc3cc(-c4ccc(F)nc4)ccc3N)no2)cn1 [Compound I-198]		240 nM	5%	> 25000 nM
Nc1ccc(-c2ccc(F)nc2)cc1NC(=O)c1cnc(C2CC2)cn1 [Compound I-129]		94 nM		> 25000 nM

Further lines, with some results ahead:

remaining rate after reaction [2]	IC50 [3]	Structure (SMILES)	inhibition at up to 83.3 µM [1]	IC50 at 48 h [4]
	430 nM	Nc1ccc(-c2ccc(F)nc2)cc1NC(=O)c1cnc(OC(F)F)cn1 [Compound I-132]	6%	> 25000 nM
	180 nM	CCOc1cnc(C(=O)Nc2cc(-c3cnn(C)c3)ccc2N)cn1 [Compound I-139]		> 25000 nM
	350 nM	Nc1ccc(-n2cccc2)nc1NC(=O)c1cnc(C2CC2)cn1 [Compound I-161]	9%	> 25000 nM
92%	170 nM	CN(C)c1ccc(C(=O)Nc2cc(-c3cnn(C)c3)ccc2N)nc1 [Compound I-177]		
	200 nM	Cn1cc(-c2ccc(N)c(NC(=O)c3ccc(C4CC4)cn3)c2)cn1 [Compound I-112]		> 25000 nM
	110 nM	COCCOc1ccc(C(=O)Nc2cc(-c3ccc(F)nc3)ccc2N)nc1 [Compound I-127]	7%	> 25000 nM
	250 nM	Nc1ccc(-c2ccc(F)nc2)cc1NC(=O)c1cnc(OCC2CC2)cn1 [Compound I-122]	3%	> 25000 nM
	230 nM	Nc1ccc(-c2ccc(F)nc2)cc1NC(=O)c1ccc(C(F)F)cn1 [Compound I-144]	7%	> 25000 nM
91.4%	360 nM	Cc1cnc(C(=O)Nc2nc(-c3ccccc3)ccc2N)cn1 [Compound I-169]		
	210 nM	COCCOc1ccc(C(=O)Nc2cc(-c3cnn(C)c3)ccc2N)nc1 [Compound I-180]		
